The text below walks through data of patent EP3210469A1, “USE OF SUBSTITUTED THIO-1,2,4-TRIAZOLES FOR INCREASING STRESS TOLERANCE IN PLANTS” (Bayer CropScience AG, priority 2016, dated 2017).

The target in assay [1] is T1, Phosphatase ABI1 über den Co-Regulator RCAR11/PYR1 (Arabidopsis thaliana, UniProt O49686+P49597).
T1 sequence (O49686 1-191): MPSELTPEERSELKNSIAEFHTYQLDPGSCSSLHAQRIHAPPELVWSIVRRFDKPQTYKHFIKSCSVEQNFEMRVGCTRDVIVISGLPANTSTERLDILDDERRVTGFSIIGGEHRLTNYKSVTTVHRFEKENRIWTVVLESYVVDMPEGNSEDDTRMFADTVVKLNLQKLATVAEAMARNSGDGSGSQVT
T1 sequence (P49597 1-434): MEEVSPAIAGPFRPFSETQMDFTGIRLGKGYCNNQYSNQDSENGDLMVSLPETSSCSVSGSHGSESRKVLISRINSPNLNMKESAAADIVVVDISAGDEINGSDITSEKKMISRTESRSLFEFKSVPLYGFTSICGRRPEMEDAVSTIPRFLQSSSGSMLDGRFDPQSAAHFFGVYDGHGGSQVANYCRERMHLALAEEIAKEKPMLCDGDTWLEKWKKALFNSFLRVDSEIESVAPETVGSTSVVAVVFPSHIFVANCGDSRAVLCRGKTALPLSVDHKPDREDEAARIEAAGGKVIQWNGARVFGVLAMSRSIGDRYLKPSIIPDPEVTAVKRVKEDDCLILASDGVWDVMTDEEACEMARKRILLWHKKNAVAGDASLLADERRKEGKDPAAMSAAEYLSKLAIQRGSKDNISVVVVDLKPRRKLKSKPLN
Description: In vitro ABI1 phosphatase inhibition assay via co-regulator RCAR11/PYR1 (MUP dephosphorylation, fluorescence). It counts as biochemical. To be noted: Konzentration 5mM of the substance in DMSO and water; 20 min at 35 °C; MUP substrate, emission 460 nm. The source says:
Effekte des Phytohormons Abscisinsäure (ABA) auf das Verhalten von Pflanzen unter abiotischem Stress und der Wirkmechanismus von ABA sind in der Literatur beschrieben (vgl. Abrams et al, WO97/23441, Park et al. Science, 2009, 324, 1068; Grill et al. Science, 2009, 324, 1064; Tanokura et al. Biophysics, 2011, 7, 123; Schroeder et al. Plant J. 2010, 61, 290). Daher kann man mit Hilfe eines geeigneten in vitro-Testsystems eine Korrelation zwischen der Wirkung von ABA und der Stressantwort einer Pflanze unter abiotischem Stress ableiten. Unter Wassermangel (Trockenstress) bilden Pflanzen das Phytohormon Abscisinsäure (ABA). Dieses bindet mit einem Co-Regulator (Regulatory Component of ABA-Receptor = RCAR nach Grill et al. Science, 2009, 324, 1064 oder PYR/PYL nach Cutler et al. Science, 2009, 324, 1068) an eine Phosphatase (z.B. ABI1, eine Typ 2C Proteinphosphatase, auch als PP2C abgekürzt) und hemmt diese in ihrer Aktivität. In der Folge wird eine "downstream" Kinase (z.B. SnRK2) nicht mehr dephosphoryliert. Diese somit aktive Kinase schaltet über Phosphorylierung von Transkriptionsfaktoren (z.B. AREB/ABF, vgl. Yoshida et al Plant J. 2010, 61, 672) ein genetisches Schutzprogramm zur Erhöhung der Trockenstresstoleranz an.
In dem im Folgenden beschriebenen Assay wird die Hemmung der Phosphatase ABI1 über den Co-Regulator RCAR11/PYR1 aus Arabidopsis thaliana genutzt. […]

In assay [2] the test system is Zea mays. Description: Drought stress greenhouse test, in vivo Part A (spray application, visual rating vs stressed control plants). Details: key: 0: kein Effekt; +: leicht positiver Effekt; ++: deutlich positiver Effekt; +++: stark positiver Effekt. To be noted: Trockenstress, 600 l/ha water, mean rating of 3 pots. The source says:
(§1) Samen von mono- bzw. dikotylen Kulturpflanzen wurden in Plastiktöpfen in sandigem Lehmboden ausgesät, mit Erde oder Sand abgedeckt und im Gewächshaus unter guten Wachstumsbedingungen angezogen. Die Behandlung der Versuchspflanzen erfolgte im frühen Laubblattstadium (BBCH10 - BBCH13). Zur Gewährleistung einer uniformen Wasserversorgung vor Stressbeginn wurden die bepflanzten Töpfe vor Substanzapplikation durch Anstaubewässerung mit Wasser versorgt.
(§2) Die in Form von benetzbaren Pulvern (WP) formulierten erfindungsgemässen Verbindungen wurden als wässrige Suspension mit einer Wasseraufwandmenge von umgerechnet 600 I/ha unter Zusatz von 0,2% Netzmittel (z.B. Agrotin) auf die grünen Pflanzenteile gesprüht. Unmittelbar nach Substanzapplikation erfolgte die Stressbehandlung der Pflanzen.
(§3) Der Trockenstress wurde durch langsames Abtrocknen unter folgenden Bedingungen induziert: • "Tag": 14 Stunden beleuchtet bei ~ 26-30°C • "Nacht": 10 Stunden ohne Beleuchtung bei ~ 18-20°C.
(§4) Die Dauer der jeweiligen Stressphasen richtete sich hauptsächlich nach dem Zustand der gestressten Kontrollpflanzen. Sie wurde (durch Wiederbewässerung und Transfer in ein Gewächshaus mit guten Wachstumsbedingungen) beendet, sobald irreversible Schäden an den gestressten Kontrollpflanzen zu beobachten waren.
(§5) Nach Beendigung der Stressphase folgte eine ca. 4-7 tägige Erholungsphase, während der die Pflanzen abermals unter guten Wachstumsbedingungen im Gewächshaus gehalten wurden. Die Dauer der Erholungsphase richtete sich hauptsächlich danach, wann die Versuchspflanzen einen Zustand erreicht hatten, der eine visuelle Bonitur potenzieller Effekte ermöglichte, und war daher variabel.
(§6) Wenn dieser Zeitpunkt erreicht war, wurde das Erscheinungsbild der mit Testsubstanzen behandelten Pflanzen im Vergleich zu den gestressten Kontrollpflanzen nach folgenden Kategorien erfasst:
(§7) Um auszuschliessen, dass die beobachteten Effekte von der ggf. fungiziden oder insektiziden Wirkung der Testverbindungen beeinflusst wurden, wurde zudem darauf geachtet, dass die Versuche ohne Pilzinfektion oder Insektenbefall abliefen.
(§8) In jedem Versuch wurden pro Kultur und Dosierung Pflanzen in 3 Töpfen behandelt und separat ausgewertet. Die in den unten stehenden Tabellen A-1 bis A-3 angegebenen Werte für die erhaltenen Effekte stellen Mittelwerte aus den erhaltenen Bonituren dar.
(§9) Wirkungen ausgewählter Verbindungen der allgemeinen Formel (I) unter Trockenstress: Tabelle A-1

Assay [3] has as its system Brassica napus. The assay is described as above. More on the design: key: 0: kein Effekt; +: leicht positiver Effekt; ++: deutlich positiver Effekt; +++: stark positiver Effekt. The following applies: Trockenstress, Dosierung 250 g/ha, 600 l/ha water, mean rating of 3 pots.
Source text: as §1, §2, §3, §4, §5, §6, §7, §8, §9

The test system of assay [4] is Triticum aestivum. The assay is described as above. More on the design: key: 0: kein Effekt; +: leicht positiver Effekt; ++: deutlich positiver Effekt; +++: stark positiver Effekt. To be noted: Trockenstress, 600 l/ha water, mean rating of 3 pots.
Source text: as §1, §2, §3, §4, §5, §6, §7, §8, §9

In the case of `CC(C=CC1(O)C(C)=CC(=O)CC1(C)C)=CC(=O)O` (stereo not shown) [Abscisinsäure], in assay [1], the “ABI1 Inhibition” value is reported as “++++ (Inhibition ≥ 90 %)”.
As to `CCn1c(SCc2ccc(C#N)cc2)nnc1-c1ccc(Cl)cc1` [B6-63, 3-(4-Chlorphenyl)-4-ethyl-5-[(4-cyanobenzyl)-sulfanyl]-4H-1,2,4-triazol], the “Effekt (ZEAMX)” value in assay [2] (Dosierung 250 g/ha) is “+++”. Further, the “Effekt (BRSNS)” value in assay [3] is on record as “+++”.
Regarding `Fc1ccc(CSc2nnc(-c3ccc(Cl)cc3)n2C2CC2)cc1` [D6-13, 3-(4-Chlorphenyl)-4-cyclopropyl-5-[(4-fluorbenzyl)-sulfanyl]-4H-1,2,4-triazol], the “Effekt (ZEAMX)” value in assay [2] (Dosierung 25 g/ha) is “+++”. In addition, in assay [4] (Dosierung 25 g/ha), the “Effekt (TRZAS)” value was “++”.
In the case of `O=C(CSc1nnc(-c2ccc(Cl)cc2)n1C1CC1)Nc1ccccc1Cl` [D6-726], in assay [2] (Dosierung 250 g/ha), the “Effekt (ZEAMX)” value is recorded as “+++”. Besides, in assay [4] (Dosierung 250 g/ha), the “Effekt (TRZAS)” value is “++”.
